From DBAASP come the findings set out here.

≈ marks a conversion by molar mass, not a printed value. A value given as a limit tells only on which side of the number the result lay.

What all share (test): ≥ marks a high value that may be exact or a test limit, other limits are often not marked, values filed in µg/mL are converted to µM
The subject of test [1] is Aeromonas hydrophila.
Test [2] relates to Aeromonas salmonicida NCTC 7812.
The test system of test [3] is Aeromonas salmonicida.
In test [4] the test system is Enterococcus faecalis ATCC 29212.
In test [5] the test system is Enterococcus faecalis.
The subject of test [6] is Escherichia coli ATCC 25922.
Test [7] concerns Escherichia coli.
The test system of test [8] is Klebsiella pneumoniae.
For test [9], the system named is Lactococcus garvieae 00-1422.
Test [10] concerns Lactococcus garvieae.
The test system of test [11] is Pseudomonas aeruginosa.
Test [12] concerns Shigella flexneri ATCC 12022.
In test [13] the test system is Shigella flexneri.
The test system of test [14] is Staphylococcus aureus.
In test [15] the test system is Streptococcus iniae 00-1425.
Test [16] has as its system Streptococcus iniae.
The test system of test [17] is Vibrio alginolyticus.
In test [18] the test system is Vibrio anguillarum ATCC 19264.
Test [19] deals with Enterobacter cloacae BCRC 10401.
The test system of test [20] is Escherichia coli BCRC 10675.
Test [21] relates to Klebsiella aerogenes BCRC 10370.
Test [22] concerns Klebsiella oxytoca BCRC 13985.
Test [23] concerns Listeria monocytogenes BCRC 14845.
Test [24] has as its system Pseudomonas aeruginosa BCRC 10944.
Test [25] relates to Staphylococcus aureus BCRC 10780.
In test [26] the test system is Staphylococcus aureus BCRC 10781.
Test [27] relates to Staphylococcus xylosus BCRC 12930.
For test [28], the system named is Streptococcus equinus BCRC 14729.
Test [29] deals with Vibrio alginolyticus BCRC 12829.
Test [30] deals with Vibrio anguillarum serotype O1.
The subject of test [31] is Vibrio harveyi.
In test [32] the test system is Vibrio parahaemolyticus BCRC 10806.
Test [33] has as its system Vibrio parahaemolyticus.
Test [34] has as its system Yersinia enterocolitica BCRC 13999.
The test system of test [35] is Candida albicans NBRC 1385.
For test [36], the system named is Escherichia coli K-12 594.
The subject of test [37] is Escherichia coli SPE 001.
The test system of test [38] is Escherichia coli W3110.
For test [39], the system named is Staphylococcus aureus ATCC 6538P.
The subject of test [40] is Staphylococcus aureus NBRC 100910.
Test [41] has as its system Staphylococcus aureus SPM 101.
For test [42], the system named is Staphylococcus aureus SR1550.
The test system of test [43] is Pseudomonas aeruginosa PAK.
The test system of test [44] is Streptococcus gordonii Challis DL1.
The subject of test [45] is Streptococcus mitis ATCC 903.
Test [46] deals with Streptococcus mutans UA159.
For test [47], the system named is Streptococcus sanguinis NY101.

As usually defined, the MIC is the least concentration at which growth counts as inhibited. A high value points to a less susceptible organism. Take `CC[C@H](C)[C@H](NC(=O)CNC(=O)[C@H](CCCN=C(N)N)NC(=O)[C@H](Cc1ccccc1)NC(=O)[C@@H](NC(=O)[C@H](Cc1cnc[nH]1)NC(=O)[C@H](Cc1cnc[nH]1)NC(=O)[C@@H](NC(=O)[C@@H](N)Cc1ccccc1)[C@@H](C)CC)[C@@H](C)CC)C(=O)N[C@H](C(=O)N[C@@H](Cc1cnc[nH]1)C(=O)N[C@@H](C)C(=O)NCC(=O)N[C@@H](CCCN=C(N)N)C(=O)N[C@@H](CO)C(=O)N[C@H](C(=O)NCC(=O)N[C@@H](CCCN=C(N)N)C(=O)N[C@@H](Cc1ccccc1)C(=O)N[C@@H](CC(C)C)C(=O)N[C@H](C(=O)NCC(=O)O)[C@@H](C)O)[C@@H](C)CC)C(C)C` [FIHHIFRGIVHAGRSIGRFLTG]: the MIC is 0.642 µM (≈ 1.6 µg/mL) in test [1]; at least 80.3 µM in test [2]; 5.02 µM (≈ 12.5 µg/mL) in test [3]; 1.26 µM (≈ 3.14 µg/mL) in test [4]; 5.02 µM (≈ 12.5 µg/mL) in test [5]; 80.3 µM (≈ 200 µg/mL) in test [6]. Further, the MIC was determined as 1.24 µM (≈ 3.1 µg/mL) in test [7]; 2.53 µM (≈ 6.3 µg/mL) in [8]; 20.1 µM (≈ 50 µg/mL) in [9]; 1.77 µM (≈ 4.42 µg/mL) in [10]; 10 µM (≈ 25 µg/mL) in test [11]; 20.1 µM (≈ 50 µg/mL) in test [12]. Besides, the MIC amounted to 2.53 µM (≈ 6.3 µg/mL) in test [13]; 1.24 µM (≈ 3.1 µg/mL) in test [14]; 2.51 µM (≈ 6.25 µg/mL) in [15]; 1.24 µM (≈ 3.1 µg/mL) in [16]; 2.53 µM (≈ 6.3 µg/mL) in test [17]; 3.55 µM (≈ 8.85 µg/mL) in [18].
In the case of `CC[C@H](C)[C@H](NC(=O)[C@@H](NC(=O)[C@H](CCCCN)NC(=O)[C@H](Cc1ccc(O)cc1)NC(=O)[C@H](Cc1ccccc1)NC(=O)[C@H](CCCCN)NC(=O)[C@@H](NC(=O)[C@H](Cc1ccccc1)NC(=O)[C@H](C)NC(=O)[C@@H](NC(=O)[C@H](C)NC(=O)[C@H](C)NC(=O)[C@H](CCCCN)NC(=O)[C@@H](NC(=O)[C@H](CC(C)C)NC(=O)[C@H](C)NC(=O)[C@H](CCCCN)NC(=O)[C@H](C)NC(=O)CN)[C@@H](C)O)[C@@H](C)O)[C@@H](C)O)[C@@H](C)O)C(=O)N[C@@H](Cc1c[nH]c2ccccc12)C(=O)O` [GAKALTKAATAFTKFYKTIW], the MIC in test [19] was 7.21 µM (≈ 16 µg/mL); in test [20], 7.21 µM (≈ 16 µg/mL); in test [21] it was 7.21 µM (≈ 16 µg/mL); in [22] it was 7.21 µM (≈ 16 µg/mL); in test [10] it was at least 57.7 µM; in [23], 28.9 µM (≈ 64 µg/mL). Also, the MIC in [24] is 28.9 µM (≈ 64 µg/mL); in test [25], at least 57.7 µM; in [26], at least 57.7 µM; in test [27], 28.9 µM (≈ 64 µg/mL); in [28], at least 57.7 µM; in test [16] it was at least 57.7 µM. For the same molecule, the MIC is at least 57.7 µM in test [29]; 14.4 µM (≈ 32 µg/mL) in test [17]; 28.9 µM (≈ 64 µg/mL) in test [30]; 28.9 µM (≈ 64 µg/mL) in test [31]; at least 57.7 µM in [32]; 14.4 µM (≈ 32 µg/mL) in [33]. Further, in [34], the MIC is at least 57.7 µM.
For the molecule `CC(C)C[C@H](NC(=O)[C@H](CCCCN)NC(=O)[C@H](CC(C)C)NC(=O)[C@H](CC(C)C)NC(=O)[C@H](CC(C)C)NC(=O)[C@H](CC(C)C)NC(=O)[C@H](CC(C)C)NC(=O)[C@H](CCCCN)NC(=O)[C@H](CC(C)C)NC(=O)[C@@H](N)CCCCN)C(=O)N[C@@H](CCCCN)C(N)=O` [KLKLLLLLKLK], the MIC was at least 48.4 µM in test [35]; 15.1 µM (≈ 20 µg/mL) in test [36]; 12.1 µM (≈ 16 µg/mL) in [37]; 12.1 µM (≈ 16 µg/mL) in test [38]; 1.51 µM (≈ 2 µg/mL) in test [39]; 12.1 µM (≈ 16 µg/mL) in test [40]. Further, the MIC in test [41] worked out at 0.378 µM (≈ 0.5 µg/mL); in test [42] it was 22.7 µM (≈ 30 µg/mL).
As for `CC[C@H](C)[C@H](NC(=O)[C@H](Cc1ccccc1)NC(=O)CNC(=O)CNC(=O)[C@H](CO)NC(=O)[C@H](Cc1ccccc1)NC(=O)[C@H](Cc1c[nH]c2ccccc12)NC(=O)[C@H](CCCN=C(N)N)NC(=O)[C@H](Cc1c[nH]c2ccccc12)NC(=O)[C@H](CCCN=C(N)N)NC(=O)[C@H](Cc1c[nH]c2ccccc12)NC(=O)[C@@H](N)CCCN=C(N)N)C(=O)N[C@@H](CCCCN)C(=O)N[C@@H](Cc1cnc[nH]1)C(=O)N[C@@H](Cc1ccccc1)C(=O)N[C@H](C(=O)N[C@@H](Cc1cnc[nH]1)C(=O)N[C@@H](CCCN=C(N)N)C(=O)N[C@@H](Cc1ccccc1)C(N)=O)[C@@H](C)CC` [RWRWRWFSGGFIKHFIHRF], the MIC in test [43] worked out at 23.9 µM (≈ 62.5 µg/mL); in test [14], 12.2 µM (≈ 32 µg/mL); in test [44], 12.2 µM (≈ 32 µg/mL); in test [45], 12.2 µM (≈ 32 µg/mL); in [46] it was 3.05 µM (≈ 8 µg/mL); in test [47] it was 12.2 µM (≈ 32 µg/mL).
